Assay results from the supplement of paper PMC9663587.

Experiments:
Experiment in all cases: increase in dead-cell fraction, 72 h; higher = more death;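 note: breast cancer cell lines in 384-well plates, stained with Hoechst plus LIVE/DEAD far red dye and imaged, cells above an LDR intensity threshold counted dead, Hoechst-negative corpses included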
BVD523 = compound: CC(C)Nc1cc(-c2c[nH]c(C(=O)N[C@H](CO)c3cccc(Cl)c3)c2)c(Cl)cn1 [BVD523]
ABT-737 = compound: CN(C)CC[C@H](CSc1ccccc1)Nc1ccc(S(=O)(=O)NC(=O)c2ccc(N3CCN(Cc4ccccc4-c4ccc(Cl)cc4)CC3)cc2)cc1[N+](=O)[O-] [ABT-737]
Doxorubicin = compound: COc1cccc2c1C(=O)c1c(O)c3c(c(O)c1C2=O)C[C@@](O)(C(=O)CO)C[C@@H]3O[C@H]1C[C@H](N)[C@H](O)[C@H](C)O1 [Doxorubicin]
Vorinostat = compound: O=C(CCCCCCC(=O)Nc1ccccc1)NO [Vorinostat]
AZD7762 = compound: NC(=O)Nc1cc(-c2cccc(F)c2)sc1C(=O)N[C@H]1CCCNC1 [AZD7762]
TGX221 = compound: CC1=CN2C(=O)C=C(N=C2C(=C1)C(C)NC3=CC=CC=C3)N4CCOCC4 [TGX221]
FMF-03-145-1 = compound: CCC(=O)Nc1ccc(C(=O)Nc2ccc(Nc3ncc4c(n3)N(C)c3ccc(C)cc3C(=O)N4C)cc2)cc1 [FMF-03-145-1]
Buparlisib/NVP-BKM120 = compound: Nc1cc(C(F)(F)F)c(-c2cc(N3CCOCC3)nc(N3CCOCC3)n2)cn1 [Buparlisib/NVP-BKM120]
R0-3306 = compound: C1=CC2=C(C=CC(=C2)C=C3C(=O)NC(=NCC4=CC=CS4)S3)N=C1 [R0-3306]
Saracatinib/AZD0530 = compound: CN1CCN(CCOc2cc(OC3CCOCC3)c3c(Nc4c(Cl)ccc5c4OCO5)ncnc3c2)CC1 [Saracatinib/AZD0530]
[1] = compound: CO[C@@H](C)Cn1c(=O)n(C)c2cnc3ccc(-c4cncc(C(C)(C)O)c4)cc3c21
AZD1775 = compound: C=CCn1c(=O)c2cnc(Nc3ccc(N4CCN(C)CC4)cc3)nc2n1-c1cccc(C(C)(C)O)n1 [AZD1775]

## AU565
BVD523; 0.001 µM
  increase in dead-cell fraction: -0.0105
BVD523; 0.003162 µM
  increase in dead-cell fraction: -0.0083
BVD523; 0.01 µM
  increase in dead-cell fraction: -0.0074
BVD523; 0.03162 µM
  increase in dead-cell fraction: -0.0063
BVD523; 0.1 µM
  increase in dead-cell fraction: -0.0004
BVD523; 0.3162 µM
  increase in dead-cell fraction: -0.0069
BVD523; 1 µM
  increase in dead-cell fraction: 0.0092
BVD523; 3.162 µM
  increase in dead-cell fraction: 0.0104
BVD523; 10 µM
  increase in dead-cell fraction: 0.0436
ABT-737; 0.001 µM
  increase in dead-cell fraction: 0.0066
ABT-737; 0.003162 µM
  increase in dead-cell fraction: 0.0005
ABT-737; 0.01 µM
  increase in dead-cell fraction: 0.0025
ABT-737; 0.03162 µM
  increase in dead-cell fraction: -0.0006
ABT-737; 0.1 µM
  increase in dead-cell fraction: 0.0014
ABT-737; 0.3162 µM
  increase in dead-cell fraction: 0.0008
ABT-737; 1 µM
  increase in dead-cell fraction: 0.0066
ABT-737; 3.162 µM
  increase in dead-cell fraction: 0.0073
ABT-737; 10 µM
  increase in dead-cell fraction: 0.0507
Doxorubicin; 0.0003162 µM
  increase in dead-cell fraction: 0.0037
Doxorubicin; 0.001 µM
  increase in dead-cell fraction: 0.0029
Doxorubicin; 0.003162 µM
  increase in dead-cell fraction: -0.0003
Doxorubicin; 0.01 µM
  increase in dead-cell fraction: -0.0009
Doxorubicin; 0.03162 µM
  increase in dead-cell fraction: 0.0192
Doxorubicin; 0.1 µM
  increase in dead-cell fraction: 0.0682
Doxorubicin; 0.3162 µM
  increase in dead-cell fraction: 0.138
Doxorubicin; 1 µM
  increase in dead-cell fraction: 0.199
Doxorubicin; 3.162 µM
  increase in dead-cell fraction: 0.22
Vorinostat; 0.001 µM
  increase in dead-cell fraction: -0.0016
Vorinostat; 0.003162 µM
  increase in dead-cell fraction: 0.0067
Vorinostat; 0.01 µM
  increase in dead-cell fraction: 0.0043
Vorinostat; 0.03162 µM
  increase in dead-cell fraction: 0.0012
Vorinostat; 0.1 µM
  increase in dead-cell fraction: 0.0011
Vorinostat; 0.3162 µM
  increase in dead-cell fraction: -0.0009
Vorinostat; 1 µM
  increase in dead-cell fraction: 0.0099
Vorinostat; 3.162 µM
  increase in dead-cell fraction: 0.142
Vorinostat; 10 µM
  increase in dead-cell fraction: 0.241
AZD7762; 0.001 µM
  increase in dead-cell fraction: 0.0024
AZD7762; 0.003162 µM
  increase in dead-cell fraction: -0.0005
AZD7762; 0.01 µM
  increase in dead-cell fraction: -0.0036
AZD7762; 0.03162 µM
  increase in dead-cell fraction: -0.0044
AZD7762; 0.1 µM
  increase in dead-cell fraction: -0.0002
AZD7762; 0.3162 µM
  increase in dead-cell fraction: 0.0011
AZD7762; 1 µM
  increase in dead-cell fraction: 0.0228
AZD7762; 3.162 µM
  increase in dead-cell fraction: 0.106
AZD7762; 10 µM
  increase in dead-cell fraction: 0.232
TGX221; 0.001 µM
  increase in dead-cell fraction: 0
TGX221; 0.003162 µM
  increase in dead-cell fraction: -0.0043
TGX221; 0.01 µM
  increase in dead-cell fraction: -0.0042
TGX221; 0.03162 µM
  increase in dead-cell fraction: -0.0019
TGX221; 0.1 µM
  increase in dead-cell fraction: 0.0014
TGX221; 0.3162 µM
  increase in dead-cell fraction: 0.003
TGX221; 1 µM
  increase in dead-cell fraction: 0.0069
TGX221; 3.162 µM
  increase in dead-cell fraction: 0.0045
TGX221; 10 µM
  increase in dead-cell fraction: 0.0099
FMF-03-145-1; 0.0001 µM
  increase in dead-cell fraction: 0.0006
FMF-03-145-1; 0.0003162 µM
  increase in dead-cell fraction: 0.0131
FMF-03-145-1; 0.001 µM
  increase in dead-cell fraction: 0.0011
FMF-03-145-1; 0.003162 µM
  increase in dead-cell fraction: 0.0053
FMF-03-145-1; 0.01 µM
  increase in dead-cell fraction: 0.231
FMF-03-145-1; 0.03162 µM
  increase in dead-cell fraction: 0.127
FMF-03-145-1; 0.1 µM
  increase in dead-cell fraction: 0.102
Buparlisib/NVP-BKM120; 0.001 µM
  increase in dead-cell fraction: -0.0006
Buparlisib/NVP-BKM120; 0.003162 µM
  increase in dead-cell fraction: 0.0058
Buparlisib/NVP-BKM120; 0.01 µM
  increase in dead-cell fraction: 0.0024
Buparlisib/NVP-BKM120; 0.03162 µM
  increase in dead-cell fraction: 0.0055
Buparlisib/NVP-BKM120; 0.1 µM
  increase in dead-cell fraction: 0.0187
Buparlisib/NVP-BKM120; 0.3162 µM
  increase in dead-cell fraction: 0.043
Buparlisib/NVP-BKM120; 1 µM
  increase in dead-cell fraction: 0.189
Buparlisib/NVP-BKM120; 3.162 µM
  increase in dead-cell fraction: 0.273
Buparlisib/NVP-BKM120; 10 µM
  increase in dead-cell fraction: 0.227
R0-3306; 0.001 µM
  increase in dead-cell fraction: -0.0007
R0-3306; 0.003162 µM
  increase in dead-cell fraction: 0.0211
R0-3306; 0.01 µM
  increase in dead-cell fraction: 0.0272
R0-3306; 0.03162 µM
  increase in dead-cell fraction: 0.005
R0-3306; 0.1 µM
  increase in dead-cell fraction: 0.0121
R0-3306; 0.3162 µM
  increase in dead-cell fraction: 0.0139
R0-3306; 1 µM
  increase in dead-cell fraction: 0.0267
R0-3306; 3.162 µM
  increase in dead-cell fraction: 0.0545
R0-3306; 10 µM
  increase in dead-cell fraction: 0.329
Saracatinib/AZD0530; 0.001 µM
  increase in dead-cell fraction: -0.003
Saracatinib/AZD0530; 0.003162 µM
  increase in dead-cell fraction: 0.0003
Saracatinib/AZD0530; 0.01 µM
  increase in dead-cell fraction: 0.0038
Saracatinib/AZD0530; 0.03162 µM
  increase in dead-cell fraction: -0.0046
Saracatinib/AZD0530; 0.1 µM
  increase in dead-cell fraction: -0.0038
Saracatinib/AZD0530; 0.3162 µM
  increase in dead-cell fraction: -0.0029
Saracatinib/AZD0530; 1 µM
  increase in dead-cell fraction: 0.0012
Saracatinib/AZD0530; 3.162 µM
  increase in dead-cell fraction: 0.0017
Saracatinib/AZD0530; 10 µM
  increase in dead-cell fraction: 0.0305
[1]; 0.001 µM
  increase in dead-cell fraction: 0.0299
[1]; 0.003162 µM
  increase in dead-cell fraction: 0.0425
[1]; 0.01 µM
  increase in dead-cell fraction: 0.0372
[1]; 0.03162 µM
  increase in dead-cell fraction: 0.0503
[1]; 0.1 µM
  increase in dead-cell fraction: 0.0586
[1]; 0.3162 µM
  increase in dead-cell fraction: 0.0998
[1]; 1 µM
  increase in dead-cell fraction: 0.074
[1]; 3.162 µM
  increase in dead-cell fraction: 0.091
[1]; 10 µM
  increase in dead-cell fraction: 0.511
AZD1775; 0.001 µM
  increase in dead-cell fraction: 0.0224
AZD1775; 0.003162 µM
  increase in dead-cell fraction: 0.0098
AZD1775; 0.01 µM
  increase in dead-cell fraction: 0.0075
AZD1775; 0.03162 µM
  increase in dead-cell fraction: 0.029
AZD1775; 0.1 µM
  increase in dead-cell fraction: 0.0256
AZD1775; 0.3162 µM
  increase in dead-cell fraction: 0.0481
AZD1775; 1 µM
  increase in dead-cell fraction: 0.119
AZD1775; 3.162 µM
  increase in dead-cell fraction: 0.184
AZD1775; 10 µM
  increase in dead-cell fraction: 0.472
